{"source": "paper PMC3996874", "about": "“Esterase Active in Polar Organic Solvents from the Yeast Pseudozyma sp. NII 08165” (Enzyme Research, 2014)", "test_system": "T1, LIP1 esterase", "T1 construct": "single band of 175 kDa on SDS-PAGE", "assay": "pNP release at […] nm, Michaelis-Menten fit (GraphPad Prism)", "format": "biochemical, Pseudozyma sp. NII 08165", "details": "pH 8, 60 °C; 0.05-0.7 mM pNPP"}
{"smiles": "CCCCCCCCCCCCCCCC(=O)Oc1ccc([N+](=O)[O-])cc1", "note": "[para-nitrophenyl palmitate]", "values": [{"measurement": "Km", "value": 10, "unit": "µM"}]}
